Data taken from patent publication US8362203B2, “Non-natural peptides as models for the development of antibiotics” (priority 2009, dated 2013).
Entries after “also recorded” stand apart in the source; their conditions may differ. Marks after values point to notes of the source that are not given here. Strand notation (5' to 3'): a small letter for the sugar, then the base; units joined by * are phosphorothioate-linked, units joined directly phosphodiester-linked; [ ] holds rarer units or linkages, { } end groups; capitals alone tell only the bases. [m2G] = N2-methylguanosine (ribo); [5mC] = 5-methylcytosine; r = 2'-OH (RNA)

How the values were obtained:
[1] = test system: GFP translation (Escherichia coli S30 extracts); assay: Coupled in vitro transcription-translation inhibition assay (GFP fluorescence); format: biochemical; details: for inhibitory effect on coupled in vitro transcription-translation (in words): peptide 300 μM to 2 mM, GFP fluorescence 0 min to 2 h, 37° C.
Protocol: Peptides with high frequency in the screening against wild-type h31 were synthesized. The peptides (DIRTQRE (SEQ ID NO: 6), CVRPFAL (SEQ ID NO: 4), FVRPFAL (SEQ ID NO: 7), TLWDLIP (SEQ ID NO: 3) and TYLPWPA (SEQ ID NO: 2)), were synthesized and their sequences were determined from the phage display experiments. The inhibitory effects of these peptides on cellular processes were determined by in vitro coupled transcription-translation inhibition assay. The PURExpress™ in vitro protein synthesis kit # E6800S from New England Biolabs (NEB) was used for this purpose. This kit contains all of the necessary components for the transcription and translation, except for the DNA template. The amounts of reagents from the kit were added according to the NEB manual. We used a DNA template for GFP (pRSETEmGFP plasmid) at a concentration of 10 μg/ml in a 15 μl of reaction volume. Different concentrations of peptides were added, ranging from 300 μM to 2 mM. The DNA template was added only after mixing of the peptides or streptomycin so that they can bind to their target region. For the control, streptomycin was added at a final concentration of 300 μM. The reaction was incubated in 384-well, Costar, clear-well, black plates and in situ incubated at 37° C. in the fluorometer. The amount of GFP translation was monitored at different intervals of time from 0 min to 2 h by fluorescence (excitation at 487 nm, emission at 509 nm) using a Gemini XPS microplate spectrofluorometer, (Molecular Devices).
A cell-free translation assay was used to test the inhibitory effects of the peptides on protein synthesis. The pRSETEmGFP plasmid that was used as template has an EmGFP gene under control of the T7 promoter (FIG. 48). Upon transcription with T7 polymerase, EmGFP mRNA was formed and undergoes translation by ribosomes to produce the green fluorescent protein (GFP). The degree of inhibition on transcription and translation due to the presence of peptide could be determined by measuring the level of GFP fluorescence. Escherichia coli S30 extracts were used, which contained all of the necessary factors and supplements for translation. The rate of GFP translation in the presence or absence of peptide was measured at different time intervals.

[2] = UV thermal melting of helix 31 RNA hairpin constructs (van't Hoff analysis); format: physicochemical; details: for ΔG° 50: standard error est. 3% (±0.2 kcal/mol)
Protocol: Thermal melting studies. The absorbance versus temperature profiles were obtained on an Aviv 14DS UV-vis spectrophotometer with a five-cuvette thermoelectric controller. Microcuvettes with two different pathlengths, 0.1 and 0.2 cm (60 and 120 μL volumes, respectively), were employed. Each set of measurements was done in triplicate. The buffer used in each experiment contained 15 mM NaCl, 20 mM sodium cacodylate, and 0.5 mM Na2EDTA (pH 7.0) unless otherwise noted. Each oligomer was dissolved in a specific volume to yield an absorbance reading just below 2.0 in a 0.1 cm pathlength cuvette. The RNA concentrations were determined from the absorbance values (260 nm) at 95° C. The absorbance data were collected at […] from 0 to 95° C. with a constant heating rate of 0.5° C./min. Thermodynamic parameters were obtained from the absorbance versus temperature profiles using the MELTWIN v. 3.5 melting curve program.^1 This program performs a van't Hoff analysis, assuming a two-state model for the transition between a native and a denatured (random coil) structure of a hairpin.
Absorbance versus temperature profiles (melting curves) were obtained at pH 7.0 for all four RNA constructs. They were analyzed in terms of ΔG°37, ΔG°50, ΔH°, ΔS°, and melting temperature (Tm),^1, 2 Representative normalized UV melting curves of the modified RNAs compared to the unmodified RNA, taken in 15 mM NaCl, 20 mM sodium cacodylate, 0.5 mM Na2EDTA (pH 7.0), are shown in FIG. 11.
The curves represent an average of five sets of data at different concentrations of RNA obtained from a five-cuvette thermoelectric controller. The melting curves for the unmodified RNA (ECh31UNMOD, blue line in panels A-C) are compared to those for the modified RNAs (pink lines: (A) ECh31WT, (B) ECh31M2G, and (C) ECh31M5C). All of the melting curves were normalized at 95° C. and absorbance measurements were taken at 260 nm (see materials and methods, section 4.5).
The melting curves are biphasic for all four RNAs (FIG. 12) with transitions at 0 to 35° C. and 40 to 80° C. […] The higher melting transitions were concentration independent, consistent with unimolecular unfolding of the hairpin structure.^3 The corresponding thermodynamic parameters for the four RNAs are given in Table 2. […] The observed order of stability of the RNAs is ECh31UNMOD>ECh31M2G>ECh31M5C>ECh31WT^a A conservative estimate of the standard error for ΔG°50 is 3% (.+−.0.2 kcal/mol)^4
The RNA samples were analyzed as five different dilutions per experiment and UV melts were also performed in triplicate for each construct. AU0-AU4 represent profiles corresponding to different dilutions of each RNA taken in 15 mM NaCl, 20 mM sodium cacodylate, 0.5 mM Na2EDTA at pH 7.0. Experiments in K^+ buffer (15 mM KCl, 20 mM cacodylic acid, 20 mM Tris [basic form], 0.5 mM Na2EDTA, pH 7.0) gave similar results (Table 3, FIG. 13).
Thermal melting studies. Preliminary experiments were performed with the unmodified human analogue (HSh31UNMOD) containing an additional G-C base-pair (denoted by g-c) similar to that of the ECh31UNMOD construct (FIG. 28).
Thermal melting studies on the human unmodified helix 31 containing the altered sequence. The absorbance versus temperature profiles were obtained at pH 7.0 in low salt conditions (35 mM Na^+) for the new analogue of helix 31 (HSh31ECstem) and analyzed in terms of the melting temperature (Tm), Δ°, ΔS° and ΔG°37. The melting curve for HSH31ECSTEM (green color curve) is biphasic with transitions at 0-35 and 45-80° C. (FIG. 37). The higher melting transition is concentration independent, consistent with unimolecular unfolding of a hairpin structure.

[3] = 15 mM NaCl, 20 mM sodium cacodylate, 0.5 mM Na2EDTA, pH 7.0
[4] = Table 2, 15 mM NaCl, 20 mM sodium cacodylate, 0.5 mM Na2EDTA, pH 7.0
[5] = Tables 3-5, NaCl buffer (15 mM NaCl, 20 mM sodium cacodylate, 0.5 mM EDTA, pH 7.0)
[6] = KCl buffer (15 mM KCl, 20 mM cacodylic acid, 20 mM Tris, 0.5 mM Na2EDTA, pH 7.0)

[H]/N=C(/N)N[C@H]1[C@H](O)[C@@H](O)[C@H](O[C@@H]2O[C@@H](C)[C@](O)(C=O)[C@H]2O[C@@H]2O[C@@H](CO)[C@H](O)[C@@H](O)[C@@H]2NC)[C@@H](N/C(N)=N\[H])[C@@H]1O [Streptomycin, reference compound]
GFP translation with positive control ([1]; 300 μM): no GFP translation was observed

CVRPFAL [compound 15, 7-mer peptide selected by phage display against helix 31 RNA]
inhibitory effect on coupled in vitro transcription-translation (in words) [1]: greater inhibitory effects on in vitro protein synthesis than other peptides
inhibitory effect on coupled in vitro transcription-translation (in words) ([1]; listed as CVRPFAL): best inhibitory effects; also recorded: strong inhibitory effects

DIRTQRE [compound 18, 7-mer peptide selected by phage display against helix 31 RNA]
inhibitory effect on coupled in vitro transcription-translation (in words) [1]: did not inhibit transcription or translation even up to 2 mM; also recorded: least inhibitory effect

ECh31M2G: 18-nt helix 31 RNA hairpin of E. coli 16S rRNA with m2G966 (rGrUrUrCrGrArUr[m2G]rCrArArCrGrCrGrArArC)
ΔG° 50 [2, 3]: −0.7^a kcal/mol
Tm [2, 4]: 56 °C
ΔG°37 [2, 4]: -2.4 ± 0.1 kcal/mol
ΔH° [2, 4]: -41.9 ± 1.1 kcal/mol
ΔS° [2, 4]: −127.5 ± 3.2 cal/K · mol

ECh31M5C: 18-nt helix 31 RNA hairpin of E. coli 16S rRNA with m5C967 (GUUCGAUGCAACGCGAAC; RNA, [5mC] at 9, all phosphodiester, methylation of C not given here)
ΔG° 50 [2, 3]: −0.6^a kcal/mol
Tm [2, 4]: 55 °C
ΔG°37 [2, 4]: -2.2 ± 0.1 kcal/mol
ΔH° [2, 4]: -40.5 ± 0.9 kcal/mol
ΔS° [2, 4]: −123.3 ± 3.1 cal/K · mol

ECh31UNMOD: 18-nt unmodified RNA hairpin representing helix 31 (U960-A975) of E. coli 16S rRNA (GUUCGAUGCAACGCGAAC; unmodified RNA)
ΔG° 50 [2, 3]: −0.9^a kcal/mol
Tm [2, 4]: 57 °C
ΔG°37 [2, 4]: -2.6 ± 0.1 kcal/mol
ΔH° [2, 4]: -44.1 ± 1.0 kcal/mol
ΔS° [2, 4]: −133.8 ± 3.0 cal/K · mol
Tm [2, 5]: 57 °C
ΔG°37 [2, 5]: -2.6 ± 0.1 kcal/mol
ΔH° [2, 5]: -44.1 ± 1.0 kcal/mol
ΔS° [2, 5]: −133.8 ± 3.0 cal/K · mol

ECh31WT: doubly modified (m2G966, m5C967) h31 analogue, wild-type sequence of E. coli 16S rRNA helix 31 (GUUCGAUGCAACGCGAAC; RNA, [m2G] at 8, [5mC] at 9, all phosphodiester, methylation of C not given here)
ΔG° 50 [2, 3]: −0.5^a kcal/mol
Tm [2, 6]: 54.7 °C
ΔG°37 [2, 6]: -2.13 ± 0.03 kcal/mol
ΔH° [2, 6]: -39.37 ± 1.2 kcal/mol
ΔS° [2, 6]: −120.08 ± 3.8 cal/K · mol
Tm [2, 4]: 56 °C
ΔG°37 [2, 4]: -2.1 ± 0.1 kcal/mol
ΔH° [2, 4]: -37.5 ± 2.2 kcal/mol
ΔS° [2, 4]: −114.4 ± 5.8 cal/K · mol
Tm [2, 5]: 55.5 °C
ΔG°37 [2, 5]: -2.10 ± 0.07 kcal/mol
ΔH° [2, 5]: -37.26 ± 1.2 kcal/mol
ΔS° [2, 5]: −113.37 ± 3.6 cal/K · mol

FVRPFAL [compound 16, 7-mer peptide selected by phage display against helix 31 RNA]
inhibitory effect on coupled in vitro transcription-translation (in words) [1]: best inhibitory effects; also recorded: strong inhibitory effects

HSh31UNMOD: unmodified human helix 31 RNA analogue with additional G-C base-pair (GUUUGACUCAACACGGGC; unmodified RNA)
Tm [2, 5]: 44 °C
ΔG°37 [2, 5]: -0.6 kcal/mol
ΔH° [2, 5]: -29.4 ± 1.6 kcal/mol
ΔS° [2, 5]: −92.8 ± 5.4 cal/K · mol

TLWDLIP [compound 14, 7-mer peptide selected by phage display against helix 31 RNA]
inhibitory effect on coupled in vitro transcription-translation (in words) [1]: greater inhibitory effects on in vitro protein synthesis than other peptides
